For assay [1], the target named is T1, CD209 antigen (Homo sapiens, UniProt Q9NNX6).
T1 sequence (Q9NNX6 whole entry): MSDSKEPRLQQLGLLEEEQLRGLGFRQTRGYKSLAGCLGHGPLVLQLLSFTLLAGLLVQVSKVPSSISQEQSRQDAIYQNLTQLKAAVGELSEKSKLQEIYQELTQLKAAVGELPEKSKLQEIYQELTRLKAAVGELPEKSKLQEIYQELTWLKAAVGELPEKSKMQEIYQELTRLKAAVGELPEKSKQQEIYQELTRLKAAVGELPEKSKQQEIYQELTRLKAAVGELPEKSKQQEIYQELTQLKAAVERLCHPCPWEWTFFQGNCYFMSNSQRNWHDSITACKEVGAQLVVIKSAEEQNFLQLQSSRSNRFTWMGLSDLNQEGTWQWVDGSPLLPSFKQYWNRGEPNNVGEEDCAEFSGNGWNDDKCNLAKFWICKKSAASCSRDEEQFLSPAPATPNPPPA
Nature of the assay: Binding affinity to human DC-SIGN by SPR analysis. A general note: SPR reads the build-up and loss of mass on a sensor chip optically.

The target of assay [2] is Type 1 fimbrin D-mannose specific adhesin (Escherichia coli K-12, UniProt P08191). The assay can be described thus: Binding affinity to Escherichia coli full-length FimH by competitive fluorescence polarization assay. For orientation: Fluorescence polarisation rises when a labelled molecule tumbles more slowly, as on binding a larger partner.
Sequence of Type 1 fimbrin D-mannose specific adhesin (P08191 whole entry): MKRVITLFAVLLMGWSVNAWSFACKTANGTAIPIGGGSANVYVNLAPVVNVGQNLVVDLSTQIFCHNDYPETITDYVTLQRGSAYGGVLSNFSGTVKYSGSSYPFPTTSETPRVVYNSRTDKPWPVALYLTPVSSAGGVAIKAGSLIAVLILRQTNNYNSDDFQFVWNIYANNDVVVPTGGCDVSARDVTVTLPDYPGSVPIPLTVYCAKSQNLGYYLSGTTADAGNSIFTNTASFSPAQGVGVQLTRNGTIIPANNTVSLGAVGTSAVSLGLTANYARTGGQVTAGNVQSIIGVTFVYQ

Usually IC50 stands for the concentration needed to halve the response being measured. Read a low IC50 as greater potency. In assay [1], `[N-]=[N+]=NCCO[C@H]1C[C@H](C(=O)OCc2ccc(CN)cc2)[C@@H](C(=O)OCc2ccc(CN)cc2)C[C@@H]1O[C@H]1O[C@H](CN)[C@@H](O)[C@H](O)[C@@H]1O` displayed an IC50 of 254 µM.
As for `COC(=O)[C@H]1C[C@H](OCCN=[N+]=[N-])[C@@H](O[C@H]2O[C@H](CN)[C@@H](O)[C@H](O)[C@@H]2O)C[C@@H]1C(=O)OC`, the IC50 in assay [1] was 481 µM.
For orientation: Kd means a measure of binding affinity in units of concentration. A low value points to a tighter complex. Regarding `N#Cc1c(F)c(F)c(-c2ccc(O[C@H]3O[C@H](CO)[C@@H](O)[C@H](O)[C@@H]3O)c(Cl)c2)c(F)c1F`, the Kd in assay [2] turned out to be 0.0221 µM.
Regarding `OC[C@H]1O[C@H](Oc2ccc(-c3ccccc3)cc2)[C@@H](O)[C@@H](O)[C@@H]1O`, binding in assay [2] was characterised by a dissociation constant (Kd) of 1.1 µM.

The record behind these values is ChEMBL document CHEMBL4376801, “Glycans in drug discovery” (Medchemcomm, 2019).
